Test results from ChEMBL document CHEMBL1201862, “PubChem BioAssay data set” (2004).
Active and inactive are the calls of the source.

Legend:
[1] = target: T1, Polyadenylate-binding protein 1 (Homo sapiens, UniProt P11940); assay: PABP1 MLLE–PAM2 interaction inhibitors, dose response, miRNA deadenylation inhibitor project, biochemical, fluorescence polarization, Cy5-PAM2 peptide, secondary (AID 602260); assay type: functional; conditions: read-out: IC50_Mean
[2] = target: T1, Polyadenylate-binding protein 1; assay: PABP1 MLLE–PAM2 binding inhibitor potency, dose response, biochemical, fluorescence polarization, FITC-PAM2 peptide (AID 602259); assay type: functional; conditions: read-out: IC50_Mean
[3] = target: FAD-linked sulfhydryl oxidase ALR (Homo sapiens, UniProt P55789); assay: inhibitors of human ALR sulfhydryl oxidase, dose response, biochemical, H2O2 detection, luminescence, cherry-pick (AID 493248)
[4] = target: T2, Heat shock factor protein 1 (Mus musculus, UniProt P38532); assay: inhibition of MG132-induced HSE-luciferase signal, confirmation, cell-based, NIH3T3, luminescence, dose retest (AID 2382); assay type: functional;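 further: NIH3T3 fibroblasts with HSF1-driven luciferase reporter stressed by proteasome inhibitor MG132; luminescence from HSF1-driven luciferase expression after 8 hours of MG132 stress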
T2 sequence (P38532 whole entry): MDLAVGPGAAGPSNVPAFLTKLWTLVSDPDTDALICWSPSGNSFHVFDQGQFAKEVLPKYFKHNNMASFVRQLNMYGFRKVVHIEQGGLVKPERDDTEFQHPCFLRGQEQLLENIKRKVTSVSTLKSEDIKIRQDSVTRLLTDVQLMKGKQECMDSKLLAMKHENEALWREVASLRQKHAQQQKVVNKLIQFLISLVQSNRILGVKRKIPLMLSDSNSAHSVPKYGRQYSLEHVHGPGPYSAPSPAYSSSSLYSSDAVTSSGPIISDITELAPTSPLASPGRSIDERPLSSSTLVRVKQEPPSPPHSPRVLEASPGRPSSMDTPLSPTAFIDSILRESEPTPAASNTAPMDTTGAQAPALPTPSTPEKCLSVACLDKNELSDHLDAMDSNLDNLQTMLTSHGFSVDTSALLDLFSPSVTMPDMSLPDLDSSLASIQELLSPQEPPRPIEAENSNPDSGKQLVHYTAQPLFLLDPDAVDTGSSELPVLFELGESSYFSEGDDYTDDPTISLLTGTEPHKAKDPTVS

Cytochrome P450 2D6 = Cytochrome P450 2D6 (Homo sapiens, UniProt P10635);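 further: CYP2D6 member of a cytochrome P450 panel assay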
[5] = target: Luciferin 4-monooxygenase (Photinus pyralis, UniProt P08659); assay: firefly luciferase enzyme inhibitors, dose response, biochemical, luminescence (AID 1891)
[6] = Luminescence Cell-Based Dose Confirmation HTS to Identify Inhibitors of Platelet Dense Granule Release. [Related pubchem assays: 1663 (Primary HTS), 1678 (Summary of Project)]; assay type: functional
Cytochrome P450 2C9 = Cytochrome P450 2C9 (Homo sapiens, UniProt P11712)
[7] = inhibitors of firefly luciferase expression or activity, dose response, H4 neuroglioma cells, luminescence (AID 1990); assay type: functional, cell-based
[8] = Luminescence Cell-Based Dose Response HTS to Identify Inhibitors of 5'UTR Stem-Loop Driven Prion Protein mRNA Translation in H4 Neuroglioblastoma Cells. [Related pubchem assays: 1827 (Project Summary), 1813 (Primary HTS)]; assay type: functional
[9] = inhibitors of SNCA 5'UTR-driven reporter translation, confirmation, H4 neuroglioma cells, luminescence (AID 1988); assay type: functional, cell-based
[10] = Luminescence Cell-Based Dose Retest to Confirm Inhibitors of Cancer Stem Cells. [Related pubchem assays (depositor defined):AID2717, AID2721]; assay type: functional; conditions: Homo sapiens
Paired box protein Pax-8 = Paired box protein Pax-8 (Homo sapiens, UniProt Q06710); assay: inhibitors of PAX8-driven TPO luciferase reporter, dose response, RMG-I cells, cherry-pick (AID 687027); assay type: functional, cell-based;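 further: luciferase reporter driven by Pax8 target thyroperoxidase promoter measured by SteadyGlo luminescence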
Chain of Paired box protein Pax-8 (Q06710 whole entry): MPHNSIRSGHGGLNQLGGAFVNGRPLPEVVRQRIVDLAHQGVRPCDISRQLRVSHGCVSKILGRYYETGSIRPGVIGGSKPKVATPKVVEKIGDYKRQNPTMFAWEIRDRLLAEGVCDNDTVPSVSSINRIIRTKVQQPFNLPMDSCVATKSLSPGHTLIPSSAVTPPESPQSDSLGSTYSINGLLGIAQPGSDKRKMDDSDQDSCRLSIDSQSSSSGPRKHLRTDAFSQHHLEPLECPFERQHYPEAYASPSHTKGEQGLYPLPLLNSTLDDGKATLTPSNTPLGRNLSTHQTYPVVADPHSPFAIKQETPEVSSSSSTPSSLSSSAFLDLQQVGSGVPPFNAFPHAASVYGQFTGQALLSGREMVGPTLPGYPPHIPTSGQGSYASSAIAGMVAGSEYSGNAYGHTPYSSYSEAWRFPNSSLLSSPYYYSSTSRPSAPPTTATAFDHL

Chain of FAD-linked sulfhydryl oxidase ALR (P55789 whole entry): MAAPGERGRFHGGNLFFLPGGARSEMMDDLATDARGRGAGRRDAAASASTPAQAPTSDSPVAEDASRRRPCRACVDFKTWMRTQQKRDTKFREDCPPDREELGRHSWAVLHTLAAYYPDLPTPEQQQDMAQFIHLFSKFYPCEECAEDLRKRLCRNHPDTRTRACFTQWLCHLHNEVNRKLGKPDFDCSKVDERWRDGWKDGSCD
T1 sequence (P11940 whole entry): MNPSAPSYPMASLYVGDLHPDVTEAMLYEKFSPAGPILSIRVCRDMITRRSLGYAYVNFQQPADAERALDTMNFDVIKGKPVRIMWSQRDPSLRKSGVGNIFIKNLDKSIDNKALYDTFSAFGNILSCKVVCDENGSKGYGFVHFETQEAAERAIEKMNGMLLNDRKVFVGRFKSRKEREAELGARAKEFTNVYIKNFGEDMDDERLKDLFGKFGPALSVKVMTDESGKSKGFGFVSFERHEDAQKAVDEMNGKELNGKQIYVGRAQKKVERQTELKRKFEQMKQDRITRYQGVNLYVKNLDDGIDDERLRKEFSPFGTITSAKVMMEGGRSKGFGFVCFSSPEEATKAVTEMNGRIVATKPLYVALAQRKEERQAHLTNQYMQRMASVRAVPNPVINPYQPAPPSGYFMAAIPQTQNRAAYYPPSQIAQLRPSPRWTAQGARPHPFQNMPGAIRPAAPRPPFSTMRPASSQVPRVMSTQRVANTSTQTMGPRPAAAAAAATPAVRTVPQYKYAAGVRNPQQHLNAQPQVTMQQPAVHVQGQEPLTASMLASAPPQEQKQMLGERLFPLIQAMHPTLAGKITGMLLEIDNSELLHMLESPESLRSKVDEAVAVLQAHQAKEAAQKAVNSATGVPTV
Chain of Cytochrome P450 2C9 (P11712 whole entry): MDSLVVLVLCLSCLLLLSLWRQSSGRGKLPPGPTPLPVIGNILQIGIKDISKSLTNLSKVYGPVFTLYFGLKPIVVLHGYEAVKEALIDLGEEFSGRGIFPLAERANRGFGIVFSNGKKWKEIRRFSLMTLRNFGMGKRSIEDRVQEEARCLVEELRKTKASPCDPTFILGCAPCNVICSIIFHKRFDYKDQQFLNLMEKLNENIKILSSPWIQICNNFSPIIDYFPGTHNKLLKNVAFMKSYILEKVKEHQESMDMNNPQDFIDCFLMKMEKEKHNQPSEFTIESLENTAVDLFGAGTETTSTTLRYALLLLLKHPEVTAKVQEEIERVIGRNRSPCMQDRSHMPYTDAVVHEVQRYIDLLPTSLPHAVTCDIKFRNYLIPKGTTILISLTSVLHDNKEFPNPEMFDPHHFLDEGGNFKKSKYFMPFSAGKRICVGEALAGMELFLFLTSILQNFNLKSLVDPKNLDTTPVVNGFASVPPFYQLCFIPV
Chain of Luciferin 4-monooxygenase (P08659 whole entry): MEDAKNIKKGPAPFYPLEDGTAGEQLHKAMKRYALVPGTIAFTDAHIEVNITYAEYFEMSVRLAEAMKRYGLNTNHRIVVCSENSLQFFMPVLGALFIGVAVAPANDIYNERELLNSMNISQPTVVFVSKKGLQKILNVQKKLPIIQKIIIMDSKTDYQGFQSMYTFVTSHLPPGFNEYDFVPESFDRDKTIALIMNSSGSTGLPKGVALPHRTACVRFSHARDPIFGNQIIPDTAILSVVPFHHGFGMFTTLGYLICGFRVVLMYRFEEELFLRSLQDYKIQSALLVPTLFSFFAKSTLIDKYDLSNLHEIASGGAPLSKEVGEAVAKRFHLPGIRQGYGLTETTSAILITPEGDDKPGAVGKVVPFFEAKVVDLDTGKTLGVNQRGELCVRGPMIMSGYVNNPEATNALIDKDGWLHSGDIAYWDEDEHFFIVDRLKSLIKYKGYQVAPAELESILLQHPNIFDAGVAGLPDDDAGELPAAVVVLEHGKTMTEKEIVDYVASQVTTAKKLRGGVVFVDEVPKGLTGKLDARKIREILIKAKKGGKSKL
Chain of Cytochrome P450 2D6 (P10635 whole entry): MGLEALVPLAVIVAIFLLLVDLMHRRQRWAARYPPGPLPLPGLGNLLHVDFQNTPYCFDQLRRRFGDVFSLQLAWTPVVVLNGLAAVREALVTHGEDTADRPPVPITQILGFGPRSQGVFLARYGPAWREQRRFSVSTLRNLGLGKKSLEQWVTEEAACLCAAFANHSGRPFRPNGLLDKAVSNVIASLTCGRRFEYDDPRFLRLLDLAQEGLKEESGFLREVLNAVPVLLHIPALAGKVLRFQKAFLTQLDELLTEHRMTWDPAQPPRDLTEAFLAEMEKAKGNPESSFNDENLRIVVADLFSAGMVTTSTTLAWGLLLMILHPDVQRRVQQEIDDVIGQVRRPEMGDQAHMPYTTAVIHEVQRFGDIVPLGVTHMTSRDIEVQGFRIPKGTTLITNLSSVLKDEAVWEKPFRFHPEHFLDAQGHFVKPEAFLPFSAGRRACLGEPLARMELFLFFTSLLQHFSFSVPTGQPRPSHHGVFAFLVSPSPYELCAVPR

## CC1CC(C)(C)NC(=S)S1 (centres undefined)
[1]
  IC50: > 66 µM (inactive)
[2]
  IC50: > 66 µM (inactive)

## Cc1cc(NC(=O)C2CCCN(S(=O)(=O)c3c[nH]cn3)C2)ccc1Br (centres undefined)
[3]
  AC50: 69.2 µM (active)

## CCN(CC)c1ccc(C2CC(=O)Nc3cc(OC)c(OC)cc32)cc1 (centres undefined)
[3]
  AC50: 2.47 µM (active)

## OCCNc1nc2nonc2nc1NCCO
[4]
  EC50: > 195 µM (not active)

## CCOC(=O)C1(Cc2ccc(OC)cc2)CCN(C(=O)c2csc(C)n2)CC1
[4]
  EC50: > 195 µM (not active)

## c1csc(CN2CC[C@@]3(CCCNC3)C2)n1
Cytochrome P450 2D6
  AC50: 12.6 µM (inconclusive)

## COc1ccc(N2CCN(C(=O)NCc3ccc(OC)c(OC)c3)CC2)cc1
[3]
  AC50: 5.76 µM (active)

## O=C(CSc1ccc2nnc(-c3ccccc3)n2n1)N1CCCCC1
[1]
  IC50: > 66 µM (inactive)
[2]
  IC50: > 66 µM (inactive)

## Cc1cc(C#N)c2ccccc2n1
[5]
  EC50: > 112 µM (not active)
[6]
  EC50: > 112 µM (not active)

## Cc1ccc(S(=O)(=O)N2CCCC(C(=O)NCCc3ccc4c(c3)OCO4)C2)cc1 (centres undefined)
[4]
  EC50: > 195 µM (not active)

## CC(C)c1cc(C(N)=O)c(NC(=O)C2CCC2)s1
[3]
  AC50: 9.12 µM (active)

## O=C(Cc1ccc2c(c1)CCCC2)Nc1ccccc1Br
[1]
  IC50: > 66 µM (inactive)
[2]
  IC50: > 66 µM (inactive)
Cytochrome P450 2C9
  AC50: 15.8 µM (inconclusive)

## COc1cccc(N2CCN(Cc3cccnc3)CC2)c1
[3]
  AC50: 10.3 µM (active)

## COc1ccc(C(=S)N2CCN(c3ccccc3C)CC2)cc1
[1]
  IC50: > 66 µM (inactive)
[2]
  IC50: > 66 µM (inactive)

## Cc1ccc(-n2c(C)cc3c2CCCC3=O)cc1
[1]
  IC50: > 66 µM (inactive)
[2]
  IC50: 41.2 µM (inactive)

## COc1cc(NC(=O)CSc2nnnn2-c2ccccc2)cc(OC)c1OC
[4]
  EC50: > 195 µM (not active)

## Cc1nnc2nc(SCC(=O)NC3CCCCC3)n(-c3ccc(Br)cc3)c(N)c1-2
[7]
  EC50: 14.6 µM (active)
[8]
  EC50: 13.9 µM (active)
[9]
  EC50: 9.53 µM (active)
[10]
  AC50: 9.82 µM (active)
Paired box protein Pax-8
  AC50: 8.51 µM (active)

## O=C(NCc1cccnc1)C(=O)NCC(c1ccco1)N1CCN(c2ccc(F)cc2)CC1 (centres undefined)
[3]
  AC50: 6.41 µM (active)

## O=C(c1ccccc1)N(CCO)Cc1cc2cc3c(cc2nc1O)OCCO3
[1]
  IC50: > 66 µM (inactive)
[2]
  IC50: > 66 µM (inactive)

## Cc1cccc(NC2(C(F)(F)F)N=C3SCCN3C2=O)n1 (centres undefined)
[1]
  IC50: > 66 µM (inactive)
[2]
  IC50: > 66 µM (inactive)

## c1csc(-c2nnsc2-c2nc3ccccc3[nH]2)c1
[4]
  EC50: > 195 µM (not active)

## Cc1cccc(CC(=O)N2CCN=C2SCc2ccc([N+](=O)[O-])cc2)c1
[1]
  IC50: > 66 µM (inactive)
[2]
  IC50: > 66 µM (inactive)

## O=C(N/N=C1/CC/C(=N/NC(=O)c2cccnc2)CC1)c1cccnc1
[3]
  AC50: 0.879 µM (active)

## Cc1cc(C)cc(NC(S)=Nc2ccc(Cl)c(Cl)c2)c1
[1]
  IC50: > 66 µM (inactive)
[2]
  IC50: > 66 µM (inactive)
